Measurements published in patent US20110306554A1, “PEPTIDE CAPABLE OF BINDING TO IMMUNOGLOBULIN” (priority 2009, published 2011).
“Also recorded” adds a separate entry of the source.

Key:
[1] = test system: Monoclonal antibody cocktail-induced arthritis mice; test: Arthritis suppressing effects on arthritis-induced mice, Part 1; format: in vivo
Experimental: Monoclonal antibody cocktail-induced arthritis mice (BALE/c Cr Slc (SPF)) were used to examine arthritis suppressing effects of a peptide which is indicated as R5 in Example 2. Arthritis was caused by intravenous administration of 2 mg/mouse of an arthritis-inducing monoclonal antibody cocktail and three days later, intraperitoneal administration of 50 μg/mouse of Lipopolysaccharide (LPS). Peptide R5 was intraperitoneally administered at a dose of 10 mg/kg once or twice a day from the day following the LPS administration (day 4) up to day 14. Methotrexate, a positive control drug, was orally administered at a dose of 0.1 mg/kg once a day from day 4. Clinical scores of the extremities were measured on even days from day 0 up to day 14. Under anesthesia, blood was removed with heparin-containing physiological saline, and an ice-cooled, 4% solution of paraformaldehyde was continuously injected to perfusion-fix the whole body. After perfusion-fixation, the knee joints (obtained by cutting at the center of the femur and of the tibia and removing the skin and muscles) and hock joints (from the center of the tibia to the toe tips) of both hind limbs were excised and further fixed by immersion in a 4% solution of paraformaldehyde overnight (4° C.). After that, both knee joints and both hock joints were transferred into 50 mM PBS (4° C.), and then subjected to soft x-ray radiography of the hock joints in two directions (from the internal side and the upper side).
The required amount was calculated for the peptide, based on the animal weight. A peptide solution was prepared to make a concentration of 1 mg/ml in a 0.5% methyl cellulose solution, and the prepared peptide solution was cold stored.
A solution of methotrexate was prepared by weighing 1 mg of methotrexate into an agate mortar, grinding it with a pestle, and then gradually adding a 0.5% methyl cellulose solution to form a suspension and make a concentration of 0.01 mg/ml. […]
Results of examinations were expressed by mean value±standard error and analyzed using EXSAS (Version 7.1.6, Arm Systex Co., Ltd.). […]

[2] = test system: Cy3-labeled goat anti-mouse immunoglobulin (IgG); test: Peptide array of C1q subunit 15-mers probed with Cy3-labeled immunoglobulin; format: binding; settings: peptide spots on glass array, 4° C., 12 hours, background fluorescence intensity is 2.6
Description: The amino acid sequences of the A, B, and C subunit chains of human C1q, are shown in SEQ ID NOs: 17 to 19, and the nucleotide sequences in SEQ ID NOs: 20 to 22. Based on each of the amino acid sequences, sequences having 15 amino acids (residues) from each subunit and shifted at intervals of three amino acids, were synthesized on a glass array as synthetic peptides (Peptide Nos. 1 to […], and 193 to 270 for the A, B, and C chains, respectively). The synthesis of each peptide was carried out at a specific location on the array, so as to prepare a peptide array which included the synthetic peptides covering the entire amino acid sequences of the subunits of C1q. The preparation of the array was outsourced to JPT Peptide Technologies GmbH.
To the peptide array was applied 330 μl of an Cy3-labeled goat anti-mouse immunoglobulin (IgG) (1 mg/ml; Zymed Laboratories) diluted 1000-fold with PBS (10 mM phosphate buffer, pH 7.0, 0.1 M NaCl), and the array was sealed and then incubated at 4° C. for 12 hours. After that, the array was washed once with methanol and then 5 times with Milli-Q water for 5 minutes each. The array slide was centrifuged and dried, and scanned with a fluorescence scanner (Agilent DNA microarray scanner; Agilent Technologies), so that fluorescence intensity was quantified at the respective peptide spots on the array using a software (Feature Extraction software; Agilent Technologies). Several spots displaying strong fluorescence intensities were detected. […] Note that in the description, the amino acids are denoted by the one-letter code known in the art.

STGKFTCKVPGLYYF (Immunoglobulin binding peptide) [R5]
difference in effectiveness between once-a-day and twice-a-day administration ([1]; 10 mg/kg intraperitoneal): no significant difference | degree of arthritis suppression compared with methotrexate ([1]; 10 mg/kg intraperitoneal vs methotrexate 0.1 mg/kg orally once a day): higher degree of arthritis suppression than that of methotrexate | arthritis suppressing effect (clinical score) ([1]; 10 mg/kg intraperitoneal, once or twice a day, day 4 to day 14): exhibited arthritis suppressing effects; also recorded: arthritis was suppressed | Fluorescence intensity [2]: 65,311
